Experimental data as given in patent publication EP4725957A1, “GROUP OF CYCLIC ALKALINE LIPOPEPTIDE COMPOUNDS, AND PREPARATION METHOD THEREFOR AND USE THEREOF” (Institute of Medicinal Biotechnology, Chinese Academy of …, priority 2023, dated 2024).
≈ marks a conversion by molar mass, not a printed value. Bridge positions count the residues as written; N and C are the ends. Square brackets hold non-standard residues; d marks the D form. Peptide text beside a SMILES is read from it. * marks the point of attachment. Dab(CH2SO3H) = N[C@@H](CCNCS(=O)(=O)O)C(=O)O; Heptanoyl(6-Me) = CC(C)CCCCC(=O)*; Nonanoyl = CCCCCCCCC(=O)*; X1 = CC[C@H](C)CCCCC(=O)*; dDab = NCC[C@@H](N)C(=O)O; Heptanoyl = CCCCCCC(=O)*; Octanoyl = CCCCCCCC(=O)*; Orn = NCCC[C@H](N)C(=O)O; Dab = NCC[C@H](N)C(=O)O; Dap = NC[C@H](N)C(=O)O

Legend:
Assay type in all cases: cell-based
[1] = system: Pseudomonas aeruginosa ATCC 27853; conditions: ATCC 27853
Procedure, shortened: (§1)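 Minimal inhibitory concentrations are measured following CLSI microdilution guidance in MH broth. Test concentrations run from 64 down to 0.03 mg/L in doubling steps, with a final bacterial load of (2-4) × 10^5 CFU/mL and 16-20 h incubation at 35-37°C.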

[2] = system: Acinetobacter baumannii ABA19-1; conditions: ABA19-1
Procedure, shortened: as §1

[3] = system: Escherichia coli ATCC BAA-2523; conditions: ATCC BAA-2523
Procedure, shortened: as §1

[4] = system: Acinetobacter baumannii NCTC 13304 (OXA-27); conditions: NCTC 13304
Procedure, shortened: as §1

[5] = system: Klebsiella pneumoniae KPN+19-15; conditions: KPN+19-15
Procedure, shortened: as §1

[6] = system: Pseudomonas aeruginosa PAE19-3; conditions: PAE19-3
Procedure, shortened: as §1

[7] = system: Klebsiella pneumoniae ATCC BAA-1705 (KPC); conditions: ATCC BAA-1705
Procedure, shortened: as §1

[8] = system: Escherichia coli ATCC BAA-2340 (KPC); conditions: ATCC BAA-2340
Procedure, shortened: as §1

[9] = Nephrotoxicity assay: in vitro cytotoxicity of HK-2 cells by CCK-8 assay; conditions: human, HK-2 cells (human renal), 72 h incubation with drug-containing medium
Procedure, shortened: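 HK-2 human renal cells in RPMI-1640 with 10% FBS were exposed to compounds at final 12.5–500 µg/mL for 72 h, then CCK-8 for 3 h and OD450 read. Viability was normalised to drug-free wells; IC50 came from logarithmic regression over three repeats, with polymyxin B as positive drug.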

| SMILES | MIC [1] | MIC [2] | MIC [3] | MIC [4] | MIC [5] | MIC [6] | MIC [7] | MIC [8] | IC50 at 72 h [9] |
| --- | --- | --- | --- | --- | --- | --- | --- | --- | --- |
| CC[C@H](C)CCCCC(=O)N[C@@H](CN)C(=O)N[C@H](C(=O)N[C@H](CCN)C(=O)N[C@H]1CCNC(=O)[C@H]([C@@H](C)O)NC(=O)[C@H](CCN)NC(=O)[C@H](CCN)NC(=O)[C@H](CC(C)C)NC(=O)[C@@H](Cc2ccccc2)NC(=O)[C@H](CCN)NC1=O)[C@@H](C)O [Compound 91, (S)-6-methyloctanoyl-Dap-Thr-D-Dab-ring(4-10)[Dab-Dab-D-Phe-Leu-Dab-Dab-Thr]] (X1-[Dap]T[dDab][Dab][Dab][dF]L[Dab][Dab]T; lactam 4-C) | 0.5 µg/mL (≈ 0.42 µM) | 0.03 µg/mL (≈ 0.0252 µM) | 0.03 µg/mL (≈ 0.0252 µM) | 0.03 µg/mL (≈ 0.0252 µM) | 0.03 µg/mL (≈ 0.0252 µM) | 0.5 µg/mL (≈ 0.42 µM) | 0.03 µg/mL (≈ 0.0252 µM) | 0.03 µg/mL (≈ 0.0252 µM) | 126 ± 19.2 µg/mL (≈ 106 µM) |
| CCCCCCC(=O)N[C@@H](CCN)C(=O)N[C@H](C(=O)N[C@@H](CN)C(=O)N[C@H]1CCNC(=O)[C@H]([C@@H](C)O)NC(=O)[C@H](CCN)NC(=O)[C@H](CCN)NC(=O)[C@H]([C@@H](C)O)NC(=O)[C@@H](Cc2ccccc2)NC(=O)[C@H](CCN)NC1=O)[C@@H](C)O [Compound 9, Heptanoyl-Dab-Thr-Dap-ring(4-10)[Dab-Dab-D-Phe-Thr-Dab-Dab-Thr]] (Heptanoyl-[Dab]T[Dap][Dab][Dab][dF]T[Dab][Dab]T; lactam 4-C) | 0.125 µg/mL (≈ 0.109 µM) | 0.03 µg/mL (≈ 0.0261 µM) | 0.03 µg/mL (≈ 0.0261 µM) | 0.03 µg/mL (≈ 0.0261 µM) | 0.03 µg/mL (≈ 0.0261 µM) | 0.25 µg/mL (≈ 0.218 µM) | 0.03 µg/mL (≈ 0.0261 µM) | 0.03 µg/mL (≈ 0.0261 µM) | > 500 µg/mL |
| CC[C@H](C)CCCCC(=O)N[C@@H](CCN)C(=O)N[C@H](C(=O)N[C@@H](CN)C(=O)N[C@H]1CCNC(=O)[C@H]([C@@H](C)O)NC(=O)[C@H](CCN)NC(=O)[C@H](CCN)NC(=O)[C@H](CC(C)C)NC(=O)[C@@H](Cc2ccccc2)NC(=O)[C@H](CCN)NC1=O)[C@@H](C)O [Compound 36, (S)-6-methyloctanoyl-Dab-Thr-Dap-ring(4-10)[Dab-Dab-D-Phe-Leu-Dab-Dab-Thr]] (X1-[Dab]T[Dap][Dab][Dab][dF]L[Dab][Dab]T; lactam 4-C) | 0.03 µg/mL (≈ 0.0252 µM) | 0.03 µg/mL (≈ 0.0252 µM) | 0.03 µg/mL (≈ 0.0252 µM) | 0.03 µg/mL (≈ 0.0252 µM) | 0.03 µg/mL (≈ 0.0252 µM) | 0.25 µg/mL (≈ 0.21 µM) | 0.03 µg/mL (≈ 0.0252 µM) | 0.03 µg/mL (≈ 0.0252 µM) | 237 ± 5.3 µg/mL (≈ 199 µM) |
| CC[C@H](C)CCCCC(=O)N[C@@H](CCN)C(=O)N[C@H](C(=O)N[C@H](CO)C(=O)N[C@H]1CCNC(=O)[C@H]([C@@H](C)O)NC(=O)[C@H](CCN)NC(=O)[C@H](CN)NC(=O)[C@H]([C@@H](C)O)NC(=O)[C@@H](Cc2ccccc2)NC(=O)[C@H](CCN)NC1=O)[C@@H](C)O [Compound 71, (S)-6-methyloctanoyl-Dab-Thr-D-Ser-ring(4-10)[Dab-Dab-D-Phe-Thr-Dap-Dab-Thr]] (X1-[Dab]T[dS][Dab][Dab][dF]T[Dap][Dab]T; lactam 4-C) | >64 µg/mL | 0.06 µg/mL (≈ 0.0515 µM) | ≤0.03 µg/mL | ≤0.03 µg/mL | 0.5 µg/mL (≈ 0.429 µM) | 64 µg/mL (≈ 55 µM) | 0.25 µg/mL (≈ 0.215 µM) | ≤0.03 µg/mL | > 500 µg/mL |
| CC(C)CCCCC(=O)N[C@@H](CCN)C(=O)N[C@H](C(=O)N[C@@H](CN)C(=O)N[C@H]1CCNC(=O)[C@H]([C@@H](C)O)NC(=O)[C@H](CCN)NC(=O)[C@H](CCNCS(=O)(=O)O)NC(=O)[C@H]([C@@H](C)O)NC(=O)[C@@H](Cc2ccccc2)NC(=O)[C@H](CCN)NC1=O)[C@@H](C)O [Compound 119, 6-methylheptanoyl-Dab-Thr-Dap-ring(4-10)[Dab-Dab-D-Phe-Thr-Dab(CH2SO3H)-Dab-Thr]] ({Heptanoyl(6-Me)}-[Dab]T[Dap][Dab][Dab][dF]T[Dab(CH2SO3H)][Dab]T; lactam 4-C) | 0.25 µg/mL (≈ 0.199 µM) | 0.25 µg/mL (≈ 0.199 µM) | 0.06 µg/mL (≈ 0.0477 µM) | 0.06 µg/mL (≈ 0.0477 µM) | 0.125 µg/mL (≈ 0.0994 µM) | 0.5 µg/mL (≈ 0.398 µM) | 0.125 µg/mL (≈ 0.0994 µM) | 0.06 µg/mL (≈ 0.0477 µM) | > 500 µg/mL |
| CC(C)CCCCC(=O)N[C@@H](CCN)C(=O)N[C@H](C(=O)N[C@H](CO)C(=O)N[C@H]1CCNC(=O)[C@H]([C@@H](C)O)NC(=O)[C@H](CCN)NC(=O)[C@H](CN)NC(=O)[C@H]([C@@H](C)O)NC(=O)[C@@H](Cc2ccccc2)NC(=O)[C@H](CCN)NC1=O)[C@@H](C)O [Compound 72, 6-methylheptanoyl-Dab-Thr-D-Ser-ring(4-10)[Dab-Dab-D-Phe-Thr-Dap-Dab-Thr]] ({Heptanoyl(6-Me)}-[Dab]T[dS][Dab][Dab][dF]T[Dap][Dab]T; lactam 4-C) | >64 µg/mL | 0.06 µg/mL (≈ 0.0522 µM) | ≤0.03 µg/mL | ≤0.03 µg/mL | 0.5 µg/mL (≈ 0.435 µM) | 64 µg/mL (≈ 55.6 µM) | 0.25 µg/mL (≈ 0.217 µM) | ≤0.03 µg/mL | > 500 µg/mL |
| CCCCCCCCC(=O)N[C@@H](CCN)C(=O)N[C@H](C(=O)N[C@@H](CCCN)C(=O)N[C@H]1CCNC(=O)[C@H]([C@@H](C)O)NC(=O)[C@H](CCN)NC(=O)[C@H](CCN)NC(=O)[C@H]([C@@H](C)O)NC(=O)[C@@H](Cc2ccccc2)NC(=O)[C@H](CCN)NC1=O)[C@@H](C)O [Compound 30, Nonanoyl-Dab-Thr-Orn-ring(4-10)[Dab-Dab-D-Phe-Thr-Dab-Dab-Thr]] (Nonanoyl-[Dab]T[Orn][Dab][Dab][dF]T[Dab][Dab]T; lactam 4-C) | 0.03 µg/mL (≈ 0.0249 µM) | 0.125 µg/mL (≈ 0.104 µM) | 0.03 µg/mL (≈ 0.0249 µM) | 0.06 µg/mL (≈ 0.0498 µM) | 0.03 µg/mL (≈ 0.0249 µM) | 0.5 µg/mL (≈ 0.415 µM) | 0.03 µg/mL (≈ 0.0249 µM) | 0.03 µg/mL (≈ 0.0249 µM) | 270 ± 13.1 µg/mL (≈ 224 µM) |
| CCCCCCC(=O)N[C@@H](CCN)C(=O)N[C@H](C(=O)N[C@H](CO)C(=O)N[C@H]1CCNC(=O)[C@H]([C@@H](C)O)NC(=O)[C@H](CCN)NC(=O)[C@H](CCN)NC(=O)[C@H]([C@@H](C)O)NC(=O)[C@@H](Cc2ccccc2)NC(=O)[C@H](CN)NC1=O)[C@@H](C)O [Compound 64, Heptanoyl-Dab-Thr-D-Ser-ring(4-10)[Dab-Dap-D-Phe-Thr-Dab-Dab-Thr]] (Heptanoyl-[Dab]T[dS][Dab][Dap][dF]T[Dab][Dab]T; lactam 4-C) | 64 µg/mL (≈ 56.3 µM) | 0.25 µg/mL (≈ 0.22 µM) | 0.25 µg/mL (≈ 0.22 µM) | 0.25 µg/mL (≈ 0.22 µM) | 0.5 µg/mL (≈ 0.44 µM) | 8 µg/mL (≈ 7.04 µM) | 0.25 µg/mL (≈ 0.22 µM) | 0.25 µg/mL (≈ 0.22 µM) | > 500 µg/mL |
| CCCCCCCC(=O)N[C@@H](CN)C(=O)N[C@H](C(=O)N[C@H](CCN)C(=O)N[C@H]1CCNC(=O)[C@H]([C@@H](C)O)NC(=O)[C@H](CCN)NC(=O)[C@H](CCN)NC(=O)[C@H](CC(C)C)NC(=O)[C@@H](Cc2ccccc2)NC(=O)[C@H](CCN)NC1=O)[C@@H](C)O [Compound 93, Octanoyl-Dap-Thr-D-Dab-ring(4-10)[Dab-Dab-D-Phe-Leu-Dab-Dab-Thr]] (Octanoyl-[Dap]T[dDab][Dab][Dab][dF]L[Dab][Dab]T; lactam 4-C) | 1 µg/mL (≈ 0.851 µM) | 0.03 µg/mL (≈ 0.0255 µM) | 0.03 µg/mL (≈ 0.0255 µM) | 0.03 µg/mL (≈ 0.0255 µM) | 0.03 µg/mL (≈ 0.0255 µM) | 1 µg/mL (≈ 0.851 µM) | 0.03 µg/mL (≈ 0.0255 µM) | 0.03 µg/mL (≈ 0.0255 µM) | 239 ± 19.1 µg/mL (≈ 204 µM) |
